According to publication PMC5703966, “Systemic clearance and brain distribution of carbazole-based cyanine compounds as Alzheimer’s disease drug candidates” (Scientific Reports, 2017):
Values joined by “and” are separate entries in the source; they are usually repeats but may differ in a detail not shown here. Equal entries are not always repeated.

Tests used:
[1] = Brain distribution by brain slices experiment; assay type: in vitro ADME, mouse; conditions: mouse
Description: The unbound volume of distribution in the brain (V u, brain) was determined in fresh brain slices using the protocol published by Friden et al.[25].

[2] = Blood cell partitioning (blood to plasma ratio); assay type: in vitro ADME; conditions: fresh whole blood, 37 °C
Description: The blood to plasma ratio was determined using the method shown in supplemental information (Supplemental Methods). […] The blood cell partitioning was calculated as follows. […] Plasma, liver microsomes and hepatocyte binding by RED device The stability of the compounds in plasma, liver microsomes and hepatocyte were studied to ensure the reliability of the binding data. Hepatocyte was deactivated by leaving them on a bench for 2 days and going through a freeze thaw cycle thereafter.

[3] = biological target: T1, BCRP (Homo sapiens, UniProt Q9UNQ0); test: Efflux transporter identification in Caco-2 cell with BCRP specific inhibitors; conditions: efflux ratio reduced by fumitremorgin C and Ko134, concentration-dependent
T1 sequence (Q9UNQ0 1-655): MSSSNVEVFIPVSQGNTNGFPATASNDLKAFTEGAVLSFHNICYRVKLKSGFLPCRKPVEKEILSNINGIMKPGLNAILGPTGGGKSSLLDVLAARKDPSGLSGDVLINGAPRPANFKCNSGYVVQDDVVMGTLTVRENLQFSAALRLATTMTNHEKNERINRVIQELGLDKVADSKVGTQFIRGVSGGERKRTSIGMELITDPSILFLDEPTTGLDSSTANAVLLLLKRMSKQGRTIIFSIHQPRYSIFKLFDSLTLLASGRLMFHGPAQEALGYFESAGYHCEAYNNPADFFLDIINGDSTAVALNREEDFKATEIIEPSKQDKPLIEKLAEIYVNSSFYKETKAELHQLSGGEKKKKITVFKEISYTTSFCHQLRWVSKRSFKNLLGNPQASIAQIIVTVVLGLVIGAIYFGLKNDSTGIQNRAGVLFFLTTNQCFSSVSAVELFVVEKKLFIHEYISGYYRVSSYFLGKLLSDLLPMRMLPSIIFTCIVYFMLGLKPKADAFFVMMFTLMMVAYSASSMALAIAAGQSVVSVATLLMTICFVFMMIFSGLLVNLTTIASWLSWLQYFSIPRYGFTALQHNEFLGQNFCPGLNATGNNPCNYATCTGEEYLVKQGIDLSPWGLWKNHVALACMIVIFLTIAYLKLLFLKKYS

[4] = tested on: Aβ(1–40); parameters: method as in PMID 22086555; conditions: cited from earlier work
[5] = biological target: P-gp (Homo sapiens, UniProt P08183); test: Efflux transporter identification in Caco-2 cell with P-gp specific inhibitors; conditions: efflux ratio reduced by PSC833 and verapamil, concentration-dependent
P-gp, sequence (P08183 whole entry): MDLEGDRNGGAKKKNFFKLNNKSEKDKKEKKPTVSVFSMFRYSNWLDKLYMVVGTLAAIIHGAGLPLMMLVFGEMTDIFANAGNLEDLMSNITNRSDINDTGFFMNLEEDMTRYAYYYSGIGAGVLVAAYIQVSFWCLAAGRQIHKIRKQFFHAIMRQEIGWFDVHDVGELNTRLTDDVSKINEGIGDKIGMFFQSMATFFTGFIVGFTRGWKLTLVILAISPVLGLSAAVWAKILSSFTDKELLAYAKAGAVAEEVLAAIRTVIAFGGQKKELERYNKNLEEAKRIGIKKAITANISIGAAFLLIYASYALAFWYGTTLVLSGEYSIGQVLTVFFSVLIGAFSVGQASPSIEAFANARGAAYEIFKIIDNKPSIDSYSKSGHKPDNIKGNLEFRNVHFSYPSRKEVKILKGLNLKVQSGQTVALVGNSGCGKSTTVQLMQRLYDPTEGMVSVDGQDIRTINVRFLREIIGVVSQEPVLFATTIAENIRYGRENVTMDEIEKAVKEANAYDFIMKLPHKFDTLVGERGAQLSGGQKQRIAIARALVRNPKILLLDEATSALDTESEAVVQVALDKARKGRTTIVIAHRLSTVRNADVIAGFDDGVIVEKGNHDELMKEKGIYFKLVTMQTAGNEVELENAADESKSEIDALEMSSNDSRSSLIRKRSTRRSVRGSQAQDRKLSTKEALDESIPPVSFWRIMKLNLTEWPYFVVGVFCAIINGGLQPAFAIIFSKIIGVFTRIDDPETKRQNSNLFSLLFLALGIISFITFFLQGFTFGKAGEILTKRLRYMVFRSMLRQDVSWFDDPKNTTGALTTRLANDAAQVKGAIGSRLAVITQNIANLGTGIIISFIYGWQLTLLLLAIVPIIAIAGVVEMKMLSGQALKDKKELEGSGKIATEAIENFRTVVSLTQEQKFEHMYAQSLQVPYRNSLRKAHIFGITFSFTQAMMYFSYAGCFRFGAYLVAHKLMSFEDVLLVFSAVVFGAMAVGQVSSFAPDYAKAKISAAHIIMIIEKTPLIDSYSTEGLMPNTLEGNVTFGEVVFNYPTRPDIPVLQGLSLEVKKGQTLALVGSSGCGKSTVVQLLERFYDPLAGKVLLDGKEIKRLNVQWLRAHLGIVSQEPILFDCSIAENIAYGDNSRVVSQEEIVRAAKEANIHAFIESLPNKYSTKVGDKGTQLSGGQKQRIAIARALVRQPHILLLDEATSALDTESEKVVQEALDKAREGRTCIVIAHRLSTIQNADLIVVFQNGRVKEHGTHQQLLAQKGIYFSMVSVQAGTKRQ

[6] = Liver microsomes stability with NADPH; assay type: in vitro ADME, mouse; conditions: for microsomal CLint at 1 μM: ICR/CD-1, liver microsomes, NADPH, read-out: Microsomes Cl int,app; for microsomal CLint at 1 μM / CLint scaled at 1 μM: pH 7.4; for CLint scaled at 1 μM: ICR/CD-1, mouse, liver microsomes, read-out: Microsomes Cl int,scaled; for Microsomes scaled Cl hep: well-stirred model; for Microsomes Cl u, int,app: Cl int,app / f u,mic
[7] = tested on: C57BL/6 mice; test: Systemic clearance and pharmacokinetics after i.v. dose in C57BL/6 mice aging 2 months; assay type: in vivo, mouse; conditions: for Cl u, renal/GFR Ratio: GFR in mice 0.6 L/h per Kg; for dose dependence of kinetics: i.v. 0.2 mg/kg to 4 mg/kg in mice; for biliary clearance share of plasma clearance / remaining / hepatic clearance share of plasma clearance (Clhep/Clp) / renal clearance share of plasma clearance: mice; for Liver first pass elimination: mouse, in vivo; for Cl u, renal: total Cl renal normalised with unbound free fraction in blood
Description: Male C57BL/6 and Bile duct-cannulated (BDC) mice (2 months, weighting: 25–30 g) obtained from Charles River, Inc. (Raleigh, NC) were used to study systemic clearance mechanism, in line with in vitro commercial samples from adolescent animals. Mice were fasted overnight and throughout the duration of the study ([…]), whereas access to water was provided ad libitum. SLOH and SLM were administered i.v. in PBS containing 5% DMSO via the tail vein (n = 5) at different dosages in a dosing volume of 5 mL/kg. Serial blood samples were collected before dosing and at 0.083, 0.167, 0.25, 0.5, 1, 2, 4, 8, 12 and 24 hours after dosing. Urine samples (0–12 and 12–24 hours; pooled 0–24 hours) were also collected after i.v. administration (1 mg/kg). Bile samples were collected at intervals of 0–4, 4–8 and 8–24 hours (pooled 0–24 hours) after dosing (1 mg/kg) to BDC mice.
(§1) Parameters in animals were determined using non-compartmental analysis. […] Systemic Cl p was calculated as the i.v. dose divided by AUC0−∞ ^iv. The terminal rate constant (K el) was calculated by a linear regression of the log-linear concentration-time curve, and the terminal elimination t 1/2 was calculated as 0.693 divided by K el. Mean residence time from t = 0 to infinity (MRT 0−∞) was calculated as AUMC 0−∞ divided by AUC 0−∞. Apparent steady-state distribution volume (Vd ss) was determined as Cl p multiplied by MRT 0−∞. […] The Cl bile was derived as the amount of (in milligrams) of SLM or SLOH in the bile over the 24-hour interval postdose/AUC0-24h. The influx clearance into brain (K in) was calculated by using the amount of drug in the brain (homogenate) at time t (A, brain (t)) (corrected for the amount of drug remaining in the cerebral vasculature) divided by plasma exposure up to this time point (AUC, plasma (0 − t)). The C u,brain was calculated by A brain (homogenate, ng/g brain) divided by V u,brain (mL/g brain). The unbound ISF to plasma ratio (K puu,brain) was calculated by unbound AUC 0−t of ISF (ng/mL × min) divided by unbound AUC 0–t (ng/mL × min) of plasma.

[8] = tested on: WT and 3 × Tg-AD mice; test: Systemic clearance and brain distribution in WT and 3 × Tg-AD mice (8 months); assay type: in vivo, mouse; conditions: for K in: 1 mg/kg i.v.; for K puu,brain in AD mice relative to WT mice: higher in AD mice
Description: The transgenic (Tg) AD mice (B6; 129-Psen1 ^tm1Mpm Tg (APPSwe, tauP301L) 1Lfa/Mmjax) and the corresponding wild-type (WT) (B6129SF2/J) mice was obtained from the Jackson Laboratory (Bar Harbor, Maine, USA), and maintained by the Animal Facility of Faculty of Health Sciences in University of Macau. Either 27 WT or AD mice (8 months) were randomly separated into 9 groups with 3 mice at each time point. Blood and brain were collected at time points 0.083, 0.167, 0.25, 0.5, 1, 2, 4, 8 and 16 hours after i.v. dosing (1 mg/kg). Mice were euthanized by isoflurane followed by cervical dislocation. All the plasma, urine, bile and brain samples were stored at −70 °C for subsequent analysis. The analytical methods for systemic and brain PK parameters were shown in supplemental information (Supplemental Methods).
as §1

| V u,brain (AD) [1] [mL/g brain] | V u,brain (WT) [1] [mL/g brain] | blood plasma ratio at 1 h, 1 μM ([2]; human) | blood plasma ratio at 1 h, 1 μM ([2]; mouse) | BCRP substrate identification [3] | P-gp substrate identification [5] | microsomal CLint at 1 μM ([6]; mouse) [µL/min/mg] | CLint scaled at 1 μM [6] [mL/min/kg] | Microsomes scaled Cl hep ([6]; mouse) [L/h/kg] | Microsomes Cl u, int,app ([6]; mouse) | Cl u, renal/GFR Ratio [7] | dose dependence of kinetics [7] | biliary clearance share of plasma clearance [7] [%] | remaining / hepatic clearance share of plasma clearance (Clhep/Clp) [7] [%] | renal clearance share of plasma clearance [7] [%] | Liver first pass elimination [7] [% liver blood flow] | K in ([8]; AD mice 8 months) [μL/min per g brain] | K in ([8]; WT mice 8 months) [μL/min per g brain] | Structure (SMILES) | affinity for Aβ(1–40) [4] | Cl u, renal [7] | also measured |
| --- | --- | --- | --- | --- | --- | --- | --- | --- | --- | --- | --- | --- | --- | --- | --- | --- | --- | --- | --- | --- | --- |
| 1.20 ± 0.240 | 1.40 ± 0.400 | ~0.76 | ~1.3 | substrates | substrates | 30 | 110 ± 13 | 1.10 ± 0.100 | 0.170 ± 0.0200^$$ mL/min/mg | 0.260 ± 0.0400^$$ | linearity kinetics dependent on dose | 34.0 | 64.0 | 1.10 | 16.0 | 4.00 ± 0.500 | 1.10 ± 0.100 | COCCOCCn1c2ccccc2c2cc(/C=C/c3cc[n+](CCO)c4ccccc34)ccc21 [SLOH, (E)-1-(2-hydroxyethyl)-4-(2-(9-(2-(2-metho-xyethoxy)-ethyl)-9H-carbazol-3-yl)vinyl) quinolin-1-ium chloride] | reasonably good affinity | 0.160 L/h per Kg and 0.160 ± 0.0300^$$ L/h per Kg | Microsomes Cl u, int,scaled ([6]; mouse): 680 ± 75.0^$$ mL/min/Kg; Cl p ([7]; C57BL/6 mice 2 months, i.v. 1 mg/kg, 1 mg/kg): 0.610 ± 0.140 L/h per Kg; K puu,brain in AD mice relative to WT mice [8]: 8 fold |
| 1.50 ± 0.580 | 2.10 ± 0.650 | ~0.82 | ~1.4 | substrates | substrates | 30 | 130 ± 9 | 0.960 ± 0.0500 | 0.300 ± 0.0200^$$ mL/min/mg | 1.90 ± 0.390 | linearity kinetics dependent on dose | 38.0 | 58.0 | 4.50 | 16.0 | 4.10 ± 1.10 | 1.70 ± 0.630 | COCCOCCn1c2ccccc2c2cc(/C=C/c3cc[n+](C)c4ccccc34)ccc21.[I-] [SLM, (E)-4-(2-(9-(2-(2-methoxyethoxy)ethyl)-9H-carbazol-3-yl)-vinyl)-1-methyl-quinolin-1-iumiodide] | reasonably good affinity | 1.10 L/h per Kg and 1.10 ± 0.230 L/h per Kg | K puu,brain in AD mice relative to WT mice [8]: 4 fold |
